# Test results from PMC9837035 (Nature Communications, 2023).
# Where “and” joins values, the source holds several entries; their conditions need not be identical. Equal entries are not always repeated.
# Experiments:
# [1] = Body weight of mice during 5-week administration; format: in vivo
# Method: The dosing solution contained 15% DMSO, 17.5% Cremophor EL, 8.75% EtOH, 8.75% HCO-40, and 50% PBS. Blood samples were collected once a week by Retro Orbital Sampling (75 μL Calibrated Micropipette; Drummond Scientific Company) during isoflurane anesthesia. Blood RNA was extracted using NucleoSpin RNA Blood (Takara Bio Inc.). The weight of each mouse was measured every 3 or 4 days.
# MLL4 [2] = molecular target: MLL4
# MLL4, sequence (Q9UMN6 2490-2715): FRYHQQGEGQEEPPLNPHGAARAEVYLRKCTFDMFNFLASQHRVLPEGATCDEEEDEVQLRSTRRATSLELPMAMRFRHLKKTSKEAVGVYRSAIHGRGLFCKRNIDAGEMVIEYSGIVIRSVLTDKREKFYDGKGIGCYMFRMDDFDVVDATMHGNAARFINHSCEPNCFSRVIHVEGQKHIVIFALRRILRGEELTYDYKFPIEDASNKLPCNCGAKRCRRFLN
# MLL4, sequence (Q9UBL3 whole entry, further chain): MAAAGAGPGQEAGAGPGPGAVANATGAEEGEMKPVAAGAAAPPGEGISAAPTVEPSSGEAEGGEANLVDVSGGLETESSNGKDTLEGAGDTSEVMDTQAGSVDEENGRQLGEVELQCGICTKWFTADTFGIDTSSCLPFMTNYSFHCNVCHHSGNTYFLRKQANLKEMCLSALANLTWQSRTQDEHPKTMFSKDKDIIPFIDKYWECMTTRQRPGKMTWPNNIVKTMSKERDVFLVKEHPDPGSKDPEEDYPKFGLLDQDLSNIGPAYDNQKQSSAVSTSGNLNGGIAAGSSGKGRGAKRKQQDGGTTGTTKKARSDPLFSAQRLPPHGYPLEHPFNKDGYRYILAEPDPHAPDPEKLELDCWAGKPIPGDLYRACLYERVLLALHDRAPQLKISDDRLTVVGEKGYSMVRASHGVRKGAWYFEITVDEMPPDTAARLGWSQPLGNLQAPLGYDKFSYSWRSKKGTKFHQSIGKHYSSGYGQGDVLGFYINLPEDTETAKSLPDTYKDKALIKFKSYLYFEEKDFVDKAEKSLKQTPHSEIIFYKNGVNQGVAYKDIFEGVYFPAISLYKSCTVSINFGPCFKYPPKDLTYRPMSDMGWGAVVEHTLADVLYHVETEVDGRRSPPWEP
# MLL4, sequence (Q9C005 whole entry, further chain): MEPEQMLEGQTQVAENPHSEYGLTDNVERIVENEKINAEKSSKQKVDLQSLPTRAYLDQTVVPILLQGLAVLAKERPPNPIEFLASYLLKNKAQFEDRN
# MLL4, sequence (Q15291 whole entry, further chain): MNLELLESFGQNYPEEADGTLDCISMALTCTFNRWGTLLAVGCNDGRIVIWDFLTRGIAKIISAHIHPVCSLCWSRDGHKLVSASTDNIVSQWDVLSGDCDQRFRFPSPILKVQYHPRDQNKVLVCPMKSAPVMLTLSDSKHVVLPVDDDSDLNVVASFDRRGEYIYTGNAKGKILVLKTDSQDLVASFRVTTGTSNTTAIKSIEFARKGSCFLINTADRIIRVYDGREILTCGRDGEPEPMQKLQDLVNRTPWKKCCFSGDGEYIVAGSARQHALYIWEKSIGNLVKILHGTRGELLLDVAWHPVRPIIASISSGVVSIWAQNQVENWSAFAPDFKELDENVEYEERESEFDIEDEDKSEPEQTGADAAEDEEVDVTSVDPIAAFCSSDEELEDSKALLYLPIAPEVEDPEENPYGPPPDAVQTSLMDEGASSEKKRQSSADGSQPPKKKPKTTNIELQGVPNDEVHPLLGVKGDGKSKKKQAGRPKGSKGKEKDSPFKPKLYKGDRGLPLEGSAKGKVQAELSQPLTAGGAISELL
# G9a = molecular target: T1, G9a (Homo sapiens, UniProt Q96KQ7); assay: biochemical
# T1 sequence (Q96KQ7 1-1210): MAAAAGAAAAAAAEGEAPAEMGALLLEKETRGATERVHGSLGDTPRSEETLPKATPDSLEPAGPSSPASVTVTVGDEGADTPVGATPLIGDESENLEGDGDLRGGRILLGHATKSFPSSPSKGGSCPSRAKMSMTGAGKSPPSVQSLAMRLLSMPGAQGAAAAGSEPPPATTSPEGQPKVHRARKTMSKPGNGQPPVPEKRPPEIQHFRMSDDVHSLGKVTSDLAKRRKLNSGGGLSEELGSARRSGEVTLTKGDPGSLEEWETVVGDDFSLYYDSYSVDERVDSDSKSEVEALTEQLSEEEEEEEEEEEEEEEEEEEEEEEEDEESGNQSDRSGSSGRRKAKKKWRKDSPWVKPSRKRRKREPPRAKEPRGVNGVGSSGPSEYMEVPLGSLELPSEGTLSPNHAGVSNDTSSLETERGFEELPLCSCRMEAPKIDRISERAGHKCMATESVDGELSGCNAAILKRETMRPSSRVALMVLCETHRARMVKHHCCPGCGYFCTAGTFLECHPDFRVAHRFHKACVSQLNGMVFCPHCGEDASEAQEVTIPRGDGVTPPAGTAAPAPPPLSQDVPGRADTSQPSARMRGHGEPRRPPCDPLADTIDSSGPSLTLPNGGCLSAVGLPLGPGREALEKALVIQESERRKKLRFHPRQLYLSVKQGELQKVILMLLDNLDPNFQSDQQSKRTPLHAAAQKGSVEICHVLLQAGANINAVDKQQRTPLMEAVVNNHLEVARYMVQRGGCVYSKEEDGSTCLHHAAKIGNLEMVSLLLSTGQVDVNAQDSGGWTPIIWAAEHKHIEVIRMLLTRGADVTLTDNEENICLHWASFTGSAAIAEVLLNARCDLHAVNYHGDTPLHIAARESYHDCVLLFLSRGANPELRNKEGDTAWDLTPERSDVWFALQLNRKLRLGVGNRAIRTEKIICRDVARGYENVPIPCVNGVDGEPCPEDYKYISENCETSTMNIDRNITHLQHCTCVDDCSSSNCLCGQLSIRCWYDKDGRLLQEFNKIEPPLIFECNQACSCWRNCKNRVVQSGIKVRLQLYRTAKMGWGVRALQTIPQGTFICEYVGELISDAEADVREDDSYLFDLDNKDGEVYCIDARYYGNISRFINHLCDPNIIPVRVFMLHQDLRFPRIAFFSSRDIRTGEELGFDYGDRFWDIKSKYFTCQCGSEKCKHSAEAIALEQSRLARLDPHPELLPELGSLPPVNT
# EZH1 = EZH1 (Homo sapiens, UniProt Q92800); assay: Radioisotope-based methyltransferase assay (selectivity)
# EZH1, sequence (Q92800 whole entry): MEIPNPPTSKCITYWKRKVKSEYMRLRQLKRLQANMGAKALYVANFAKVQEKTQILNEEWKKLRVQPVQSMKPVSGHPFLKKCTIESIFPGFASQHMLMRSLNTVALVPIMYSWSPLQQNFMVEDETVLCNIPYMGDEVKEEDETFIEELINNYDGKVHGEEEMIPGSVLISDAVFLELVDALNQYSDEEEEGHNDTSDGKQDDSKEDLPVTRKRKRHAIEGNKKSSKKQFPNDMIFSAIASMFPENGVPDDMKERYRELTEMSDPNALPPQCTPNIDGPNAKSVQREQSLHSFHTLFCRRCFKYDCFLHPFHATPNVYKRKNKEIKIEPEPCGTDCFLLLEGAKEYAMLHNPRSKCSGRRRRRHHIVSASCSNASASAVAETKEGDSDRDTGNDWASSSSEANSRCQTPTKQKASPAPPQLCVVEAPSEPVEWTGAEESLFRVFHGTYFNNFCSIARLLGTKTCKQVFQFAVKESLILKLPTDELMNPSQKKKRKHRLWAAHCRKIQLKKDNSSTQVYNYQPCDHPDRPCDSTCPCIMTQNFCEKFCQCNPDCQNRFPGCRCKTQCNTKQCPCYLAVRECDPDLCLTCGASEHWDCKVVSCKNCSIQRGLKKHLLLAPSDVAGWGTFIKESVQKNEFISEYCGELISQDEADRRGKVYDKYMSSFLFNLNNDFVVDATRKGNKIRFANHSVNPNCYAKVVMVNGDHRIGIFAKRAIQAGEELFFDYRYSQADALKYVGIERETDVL
# EZH1, sequence (O75530 whole entry partner): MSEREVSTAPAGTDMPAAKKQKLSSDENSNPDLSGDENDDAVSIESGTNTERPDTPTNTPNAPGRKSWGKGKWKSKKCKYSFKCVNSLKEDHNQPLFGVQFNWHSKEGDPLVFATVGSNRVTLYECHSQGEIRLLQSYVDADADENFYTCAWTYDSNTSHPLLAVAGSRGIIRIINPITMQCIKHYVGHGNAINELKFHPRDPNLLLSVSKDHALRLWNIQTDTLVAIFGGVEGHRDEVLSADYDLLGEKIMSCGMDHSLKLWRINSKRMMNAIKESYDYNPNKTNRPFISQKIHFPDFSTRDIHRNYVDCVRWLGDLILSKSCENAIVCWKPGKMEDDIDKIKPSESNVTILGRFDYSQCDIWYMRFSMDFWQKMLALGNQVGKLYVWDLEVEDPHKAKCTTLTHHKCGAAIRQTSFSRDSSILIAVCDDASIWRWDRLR
# EZH1, sequence (Q15022 whole entry partner): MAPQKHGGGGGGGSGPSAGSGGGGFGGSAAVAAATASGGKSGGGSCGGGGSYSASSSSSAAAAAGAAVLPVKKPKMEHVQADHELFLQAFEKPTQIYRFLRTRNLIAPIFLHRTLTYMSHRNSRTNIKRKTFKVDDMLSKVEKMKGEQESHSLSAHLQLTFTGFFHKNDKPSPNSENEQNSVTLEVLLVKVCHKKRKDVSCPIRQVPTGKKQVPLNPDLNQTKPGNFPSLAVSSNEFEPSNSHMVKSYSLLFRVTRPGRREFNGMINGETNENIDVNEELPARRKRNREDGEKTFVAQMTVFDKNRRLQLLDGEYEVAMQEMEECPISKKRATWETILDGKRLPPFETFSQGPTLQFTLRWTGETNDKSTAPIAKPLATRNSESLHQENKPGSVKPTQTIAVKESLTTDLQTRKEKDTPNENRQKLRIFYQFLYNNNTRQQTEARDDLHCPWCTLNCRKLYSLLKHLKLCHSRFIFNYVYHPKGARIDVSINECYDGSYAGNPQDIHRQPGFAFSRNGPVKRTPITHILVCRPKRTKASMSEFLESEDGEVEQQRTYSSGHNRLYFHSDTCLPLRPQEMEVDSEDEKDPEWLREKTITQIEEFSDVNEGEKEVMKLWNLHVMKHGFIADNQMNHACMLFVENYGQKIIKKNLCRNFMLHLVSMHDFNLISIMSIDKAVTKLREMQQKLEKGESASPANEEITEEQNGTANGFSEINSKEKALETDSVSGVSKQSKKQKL
# EZH1, sequence (Q09028 whole entry partner): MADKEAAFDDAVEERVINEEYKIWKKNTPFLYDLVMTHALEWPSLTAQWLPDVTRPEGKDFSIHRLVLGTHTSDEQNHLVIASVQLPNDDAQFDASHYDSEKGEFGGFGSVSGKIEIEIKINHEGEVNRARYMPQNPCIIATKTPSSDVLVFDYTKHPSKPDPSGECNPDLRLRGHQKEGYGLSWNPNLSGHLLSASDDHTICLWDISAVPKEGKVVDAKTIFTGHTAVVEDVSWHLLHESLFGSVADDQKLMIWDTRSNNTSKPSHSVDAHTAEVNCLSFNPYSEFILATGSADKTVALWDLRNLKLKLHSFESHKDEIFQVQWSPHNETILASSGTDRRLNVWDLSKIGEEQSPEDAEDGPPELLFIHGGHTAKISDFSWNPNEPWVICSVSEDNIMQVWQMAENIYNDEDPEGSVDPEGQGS
# EZH1, sequence (Q6ZN18 whole entry partner): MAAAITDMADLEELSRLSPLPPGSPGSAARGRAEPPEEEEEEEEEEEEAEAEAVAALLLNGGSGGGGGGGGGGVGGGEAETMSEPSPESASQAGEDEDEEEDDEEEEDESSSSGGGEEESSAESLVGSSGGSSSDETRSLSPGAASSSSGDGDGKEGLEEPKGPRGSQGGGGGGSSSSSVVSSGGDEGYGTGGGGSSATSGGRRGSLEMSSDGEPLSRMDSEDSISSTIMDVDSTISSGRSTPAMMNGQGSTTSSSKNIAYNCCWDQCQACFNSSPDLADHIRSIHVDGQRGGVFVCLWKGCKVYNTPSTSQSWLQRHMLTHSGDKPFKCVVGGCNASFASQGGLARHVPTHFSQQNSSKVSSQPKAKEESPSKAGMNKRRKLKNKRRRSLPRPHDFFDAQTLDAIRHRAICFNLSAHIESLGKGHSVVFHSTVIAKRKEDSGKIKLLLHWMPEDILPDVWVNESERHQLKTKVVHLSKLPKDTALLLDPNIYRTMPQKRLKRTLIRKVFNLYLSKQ
# MLL4 [3] = molecular target: MLL4 (Homo sapiens, UniProt Q9UMN6)
# MLL4 (Homo sapiens, UniProt Q9UMN6), sequence (Q9UMN6 2490-2715): as the sequence (Q9UMN6 2490-2715) above
# MLL4 (Homo sapiens, UniProt Q9UMN6), sequence (Q9UBL3 whole entry, further chain): as the sequence (Q9UBL3 whole entry, further chain) above
# MLL4 (Homo sapiens, UniProt Q9UMN6), sequence (Q9C005 whole entry, further chain): as the sequence (Q9C005 whole entry, further chain) above
# MLL4 (Homo sapiens, UniProt Q9UMN6), sequence (Q15291 whole entry, further chain): as the sequence (Q15291 whole entry, further chain) above
smiles,measurement,setting,value
Cc1c(C(=O)NC(CCC2CC2)C(=O)Nc2ccc(C#N)cc2)[nH]c2c1C(=O)CC(C)(C)C2 (stereo not shown) [RK-701],body weight of individual mice,"[1]; 20 mg/kg i.p., Day 0",17.8 g and 17.5 g and 16.8 g and 16.2 g and 16.4 g
same,body weight of individual mice,"[1]; 20 mg/kg i.p., Day 4",18.5 g and 17.7 g and 17.3 g and 17.2 g and 16.8 g and 17.4 g
same,body weight of individual mice,"[1]; 20 mg/kg i.p., Day 8",18.4 g and 18.1 g and 17.4 g and 17.7 g and 16.7 g and 17.8 g
same,body weight of individual mice,"[1]; 20 mg/kg i.p., Day 11",18.6 g and 18.2 g and 17.5 g and 17.6 g and 16.5 g and 17.1 g
same,body weight of individual mice,"[1]; 20 mg/kg i.p., Day 15",18.7 g and 18.1 g and 17.7 g and 18.2 g and 16.6 g
same,body weight of individual mice,"[1]; 20 mg/kg i.p., Day 18",19.3 g and 18.2 g and 17.8 g and 16.6 g
same,body weight of individual mice,"[1]; 20 mg/kg i.p., Day 22",18 g and 19 g and 18.5 g and 17 g and 18.6 g
same,body weight of individual mice,"[1]; 20 mg/kg i.p., Day 25",20.2 g and 19.5 g and 17.7 g and 18.3 g and 17.8 g and 18.8 g
same,body weight of individual mice,"[1]; 20 mg/kg i.p., Day 29",20.4 g and 18.2 g and 19.8 g and 18.7 g and 16 g and 18.5 g
same,body weight of individual mice,"[1]; 20 mg/kg i.p., Day 32",19.9 g and 20 g and 19 g and 19.7 g and 19.6 g
same,body weight of individual mice,"[1]; 50 mg/kg i.p., Day 0",14.7 g and 16.5 g and 17.3 g and 16.4 g and 17.4 g
same,body weight of individual mice,"[1]; 50 mg/kg i.p., Day 4",15.3 g and 18.3 g and 17.7 g and 17.3 g and 17.8 g
same,body weight of individual mice,"[1]; 50 mg/kg i.p., Day 8",14.8 g and 17.7 g and 18.3 g and 18.1 g
same,body weight of individual mice,"[1]; 50 mg/kg i.p., Day 11",16 g and 18 g and 18.7 g and 17.9 g and 18.5 g
same,body weight of individual mice,"[1]; 50 mg/kg i.p., Day 15",15 g and 18 g and 19.1 g and 17.9 g and 18.5 g
same,body weight of individual mice,"[1]; 50 mg/kg i.p., Day 18",15.1 g and 18.4 g and 19.3 g and 19.5 g
same,body weight of individual mice,"[1]; 50 mg/kg i.p., Day 22",15.5 g and 18.9 g and 19.7 g and 19.8 g
same,body weight of individual mice,"[1]; 50 mg/kg i.p., Day 25",16.7 g and 19.1 g and 20.6 g and 19.9 g and 20.4 g
same,body weight of individual mice,"[1]; 50 mg/kg i.p., Day 29",16.3 g and 18.4 g and 19.6 g and 19 g and 20 g
same,body weight of individual mice,"[1]; 50 mg/kg i.p., Day 32",16.7 g and 19.5 g and 21.2 g and 20 g
same,mouse body weights,[1]; five-week continuous administration,no effect on mouse body weights
same,IC50,MLL4 [2],> 100000 nM
same,IC50,G9a,21.8 nM and 23.9 nM
same,IC50,EZH1,> 100000 nM
"Nc1ncnc2c1ncn2[C@@H]1O[C@H](CSCC[C@H](N)C(=O)O)[C@@H](O)[C@H]1O [SAH, S-(5'-Adenosyl)-L-homocysteine, reference compound]",IC50,MLL4 [3],1130 nM
